Source: ChEMBL document CHEMBL1201862, “PubChem BioAssay data set” (2004)
Each block holds one compound with its values, some of them ahead of it. The source made the active and inactive calls. For most assays here, no stated cut-off is given here; in the data, actives have a measured EC50 and inactives only a lower limit.

Tests used:
[1] = biological target: T1, RNA-binding protein pos-1 (Caenorhabditis elegans, UniProt G5EF15); assay: inhibitors of POS-1/mex-3 RNA binding, dose response, biochemical, fluorescence polarization (AID 1964);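 further: purified POS-1 fused to maltose binding protein made in E. coli; potency of compounds blocking POS-1 binding to fluorescent RNA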
T1 sequence (G5EF15 whole entry): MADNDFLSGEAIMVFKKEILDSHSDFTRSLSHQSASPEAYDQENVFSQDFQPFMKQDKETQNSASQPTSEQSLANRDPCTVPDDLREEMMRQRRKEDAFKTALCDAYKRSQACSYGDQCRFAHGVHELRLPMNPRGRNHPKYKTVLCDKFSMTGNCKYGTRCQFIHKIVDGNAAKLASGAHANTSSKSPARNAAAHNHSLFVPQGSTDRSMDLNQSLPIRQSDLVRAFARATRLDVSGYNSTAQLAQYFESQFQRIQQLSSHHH

[2] = biological target: T2, Zinc finger protein mex-5 (Caenorhabditis elegans, UniProt Q9XUB2); assay: MEX-5/TCR-2 RNA interaction inhibitors, dose response, biochemical, C. elegans, fluorescence polarization (AID 1960)
T2 sequence (Q9XUB2 whole entry): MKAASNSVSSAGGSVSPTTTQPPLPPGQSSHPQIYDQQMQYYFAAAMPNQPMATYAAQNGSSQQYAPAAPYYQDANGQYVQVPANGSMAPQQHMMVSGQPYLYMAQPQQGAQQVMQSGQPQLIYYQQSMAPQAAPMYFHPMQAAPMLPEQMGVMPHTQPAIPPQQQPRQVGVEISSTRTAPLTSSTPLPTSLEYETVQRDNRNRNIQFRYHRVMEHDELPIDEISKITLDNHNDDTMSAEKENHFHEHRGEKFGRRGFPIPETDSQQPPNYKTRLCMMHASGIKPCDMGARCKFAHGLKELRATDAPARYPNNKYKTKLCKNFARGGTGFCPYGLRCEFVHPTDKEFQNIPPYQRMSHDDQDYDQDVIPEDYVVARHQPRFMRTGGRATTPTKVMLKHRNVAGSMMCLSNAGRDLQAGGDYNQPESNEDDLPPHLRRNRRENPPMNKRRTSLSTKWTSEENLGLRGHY

cells [3] = assay type: functional, cell-based
cells [4] = assay type: functional, cell-based; remark: listed apart in the source
[5] = biological target: T3, Corticotropin-releasing factor receptor 2/Corticotropin-releasing factor-binding protein (Homo sapiens, UniProt P24387+Q13324); assay: Dose Response confirmation of uHTS hits for small molecule antagonists of the CRF-binding protein and CRF-R2 receptor complex.; assay type: functional; conditions: read-out: IC50_Mean
T3 sequence (Q13324 whole entry): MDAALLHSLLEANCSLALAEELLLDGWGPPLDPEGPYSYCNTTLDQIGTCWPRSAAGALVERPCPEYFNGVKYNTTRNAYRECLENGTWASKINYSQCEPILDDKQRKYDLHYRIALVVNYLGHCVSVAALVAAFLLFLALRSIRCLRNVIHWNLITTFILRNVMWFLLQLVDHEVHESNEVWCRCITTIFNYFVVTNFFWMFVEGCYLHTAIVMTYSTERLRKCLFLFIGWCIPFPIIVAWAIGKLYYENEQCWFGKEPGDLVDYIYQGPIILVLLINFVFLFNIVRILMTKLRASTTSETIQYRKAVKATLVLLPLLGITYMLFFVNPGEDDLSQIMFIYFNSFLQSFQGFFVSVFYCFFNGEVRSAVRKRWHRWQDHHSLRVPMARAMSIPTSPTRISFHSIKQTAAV
T3 sequence (P24387 whole entry): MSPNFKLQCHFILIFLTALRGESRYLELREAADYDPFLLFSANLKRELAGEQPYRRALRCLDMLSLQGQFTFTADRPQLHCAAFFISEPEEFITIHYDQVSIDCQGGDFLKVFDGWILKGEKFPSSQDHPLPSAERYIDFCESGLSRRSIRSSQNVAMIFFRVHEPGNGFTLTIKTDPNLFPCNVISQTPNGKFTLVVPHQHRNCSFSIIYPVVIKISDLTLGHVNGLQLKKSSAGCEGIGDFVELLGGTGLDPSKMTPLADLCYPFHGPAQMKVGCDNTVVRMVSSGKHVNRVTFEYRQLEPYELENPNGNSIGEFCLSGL

[6] = biological target: T3, Corticotropin-releasing factor receptor 2/Corticotropin-releasing factor-binding protein; assay: activators of CRF receptor 2 with binding protein – uHTS hits, confirmation (AID 602473); assay type: functional; conditions: read-out: EC50_Mean
[7] = biological target: T4, Rac GTPase-activating protein 1 (Homo sapiens, UniProt Q9H0H5); assay: MgcRacGAP GTPase-activating activity inhibitors, confirmation, biochemical, ADP Hunter fluorescence, primary and confirmatory (AID 624330); assay type: functional
T4 sequence (Q9H0H5 whole entry): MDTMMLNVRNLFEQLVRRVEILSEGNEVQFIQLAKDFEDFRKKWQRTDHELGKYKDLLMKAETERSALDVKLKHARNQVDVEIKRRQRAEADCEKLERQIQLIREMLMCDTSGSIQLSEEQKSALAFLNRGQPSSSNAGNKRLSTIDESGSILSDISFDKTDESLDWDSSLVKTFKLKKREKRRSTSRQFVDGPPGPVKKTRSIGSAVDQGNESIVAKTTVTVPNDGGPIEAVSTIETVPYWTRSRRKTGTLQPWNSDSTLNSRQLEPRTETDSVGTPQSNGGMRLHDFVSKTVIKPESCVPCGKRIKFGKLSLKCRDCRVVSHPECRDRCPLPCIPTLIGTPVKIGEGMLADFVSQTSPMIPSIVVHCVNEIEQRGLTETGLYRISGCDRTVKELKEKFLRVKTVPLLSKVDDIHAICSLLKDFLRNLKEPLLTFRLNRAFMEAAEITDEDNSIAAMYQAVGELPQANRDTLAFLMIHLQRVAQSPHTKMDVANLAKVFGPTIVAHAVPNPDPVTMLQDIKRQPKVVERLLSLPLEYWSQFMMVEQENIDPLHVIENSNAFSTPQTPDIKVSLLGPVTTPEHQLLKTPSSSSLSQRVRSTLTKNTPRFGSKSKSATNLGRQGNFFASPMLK

[8] = biological target: T5, Heat shock factor protein 1 (Mus musculus, UniProt P38532); assay: inhibition of MG132-induced HSE-luciferase signal, confirmation, cell-based, NIH3T3, luminescence, dose retest (AID 2382); assay type: functional;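 further: NIH3T3 fibroblasts with HSF1-driven luciferase reporter stressed by proteasome inhibitor MG132; luminescence from HSF1-driven luciferase expression after 8 hours of MG132 stress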
T5 sequence (P38532 whole entry): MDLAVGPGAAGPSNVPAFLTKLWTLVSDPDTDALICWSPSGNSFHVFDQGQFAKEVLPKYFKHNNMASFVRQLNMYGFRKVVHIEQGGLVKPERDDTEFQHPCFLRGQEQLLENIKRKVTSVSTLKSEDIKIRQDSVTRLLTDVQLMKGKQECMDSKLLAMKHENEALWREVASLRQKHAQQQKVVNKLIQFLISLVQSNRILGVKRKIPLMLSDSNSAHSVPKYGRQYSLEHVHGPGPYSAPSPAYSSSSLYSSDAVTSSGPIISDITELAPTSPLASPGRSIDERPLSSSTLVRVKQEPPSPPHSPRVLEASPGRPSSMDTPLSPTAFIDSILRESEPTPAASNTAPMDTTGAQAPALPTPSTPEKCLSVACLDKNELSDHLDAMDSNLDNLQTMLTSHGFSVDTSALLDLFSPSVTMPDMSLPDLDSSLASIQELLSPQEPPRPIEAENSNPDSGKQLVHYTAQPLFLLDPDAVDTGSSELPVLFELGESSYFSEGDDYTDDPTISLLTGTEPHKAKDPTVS

[9] = HEp-2 cell cytotoxicity, dose response, cytotoxicity control for RSV inhibitor project, HTS (AID 2410); assay type: functional; conditions: human respiratory syncytial virus

SMILES: COc1ccc(CC(=O)N2CCN(C(=O)Cc3ccc(OC)cc3)CC2)cc1
EC50 (cells [3]): > 350 µM (not active)
EC50 (cells [4]): > 350 µM (not active)

SMILES: COc1ccc(N(CC(=O)Nc2cc(OC)ccc2OC)S(=O)(=O)c2c(C)noc2C)cc1
EC50 (cells [3]): > 350 µM (not active)
EC50 (cells [4]): > 350 µM (not active)

SMILES: Cc1cc(C)nc(NNC2=CC(=O)CC(C)(C)C2)n1
EC50 [1]: 84.6 µM (active)
EC50 [2]: 10.9 µM (active)

SMILES: Cc1ccccc1-c1nc2ccccc2c(=O)n1/N=C/c1ccccc1[N+](=O)[O-]
EC50 (cells [3]): > 350 µM (not active)
EC50 (cells [4]): > 350 µM (not active)

SMILES: Cc1nnc(-c2ccccc2)nc1N(C)C
EC50 (cells [3]): > 350 µM (not active)
EC50 (cells [4]): > 350 µM (not active)

SMILES: Cc1cccc(C(=O)OC(C)CN2CCCC2)c1 (centres undefined)
EC50 (cells [3]): > 350 µM (not active)
EC50 (cells [4]): > 350 µM (not active)

SMILES: O=C(O)C1=C[C@@H](c2ccc(Br)cc2)C[C@@H](OCc2ccc(CO)cc2)O1
IC50 [5]: > 47.1 µM (inactive)
EC50 [6]: > 53 µM (inactive)

SMILES: CN(c1ccc(O)cc1)c1nc(-c2cccs2)cs1
IC50 [7]: 70.4 µM (active)

SMILES: CCCn1cc2c3c(cccc31)C1CC(C)CN(C)C1C2 (centres undefined)
EC50 [1]: 36 µM (active)
EC50 [2]: 29.6 µM (active)

SMILES: Cc1ccc(S(=O)(=O)N2CCOC23CCN(C(=O)c2cc(Cl)ccc2Cl)CC3)cc1
EC50 (cells [3]): > 350 µM (not active)
EC50 (cells [4]): > 350 µM (not active)
CC50 [9]: 16.3 µM (active)

SMILES: COC(=O)C12CCc3c(ccc4cc(OC)ccc34)C1=CC(=O)C2 (centres undefined)
IC50 [5]: > 47.1 µM (inactive)
EC50 [6]: > 53 µM (inactive)

SMILES: Cc1ccccc1NC(=O)c1ccccc1O
EC50 (cells [3]): > 350 µM (not active)
EC50 (cells [4]): 50.3 µM (active)

SMILES: CCN(CC)CCNC1=CC(=O)OC12CCCCC2
EC50 (cells [3]): > 350 µM (not active)
EC50 (cells [4]): > 350 µM (not active)

SMILES: CCOc1cc(/C=N/NC(=O)NN(C)c2ncc(C(F)(F)F)cc2Cl)ccc1O
IC50 [7]: 88.4 µM (active)

SMILES: Cn1c(CCNC(=O)c2ccco2)nc2cc(NC(=O)c3ccco3)ccc21
IC50 [5]: > 47.1 µM (inactive)
EC50 [6]: > 53 µM (inactive)

SMILES: Cn1cc(S(=O)(=O)Nc2ccc(Br)cc2F)c(=O)n(C)c1=O
IC50 [5]: > 47.1 µM (inactive)
EC50 [6]: > 53 µM (inactive)

Second part, the compound after the results:

EC50 [1]: 198 µM (active)
EC50 [2]: 8.55 µM (active)
SMILES: O=C(NN1C(=O)c2ccccc2NC1c1ccccn1)c1ccc([N+](=O)[O-])cc1 (centres undefined)

IC50 [5]: > 47.1 µM (inactive)
EC50 [6]: > 53 µM (inactive)
SMILES: COc1ccc(C2CC(c3ccc(Br)cc3)=NN2C(=O)CCC(=O)O)cc1OC (centres undefined)

IC50 [5]: < 0.368 µM (active)
EC50 [6]: > 53 µM (inactive)
SMILES: O=C(O)CCC(=O)Nc1ccc(Br)c(Cl)c1

EC50 [1]: > 300 µM (not active)
EC50 [2]: > 300 µM (not active)
SMILES: O=C(O)C(=O)/C(=C\c1ccc(Cl)cc1)c1ccc2ccccc2n1

IC50 [7]: 49.6 µM (active)
SMILES: COc1cc(/C=C/C(=O)OCC(=O)N2CC3(C)CC2CC(C)(C)C3)ccc1O (centres undefined)

EC50 [1]: 31.6 µM (active)
EC50 [2]: 41.3 µM (active)
EC50 [8]: > 195 µM (not active)
SMILES: N=c1c(C(=O)NC2CCCC2)cc2c(=O)n3ccccc3nc2n1Cc1ccccc1

EC50 [1]: > 300 µM (not active)
EC50 [2]: > 300 µM (not active)
SMILES: COC(=O)c1ccccc1-n1cccc1C(=O)NP(=O)(N1CCOCC1)N1CCOCC1

EC50 [1]: 70.6 µM (active)
EC50 [2]: 18.6 µM (active)
SMILES: Oc1ccc(C2=CSC3=NCCN23)cc1O

EC50 [1]: > 300 µM (not active)
EC50 [2]: > 300 µM (not active)
SMILES: COc1ccc(-n2c(NNC(C)=O)nc3sc4c(c3c2=O)CCCC4)cc1

IC50 [7]: 99.4 µM (active)
SMILES: COc1cccc(CNc2ccc3c(c2)ncn3C)c1OC

EC50 [1]: 33.4 µM (active)
EC50 [2]: 30.1 µM (active)
SMILES: CC(=O)N1CCc2c(sc(NC(=O)C3CCCCC3)c2C(N)=O)C1

IC50 [5]: > 47.1 µM (inactive)
EC50 [6]: > 53 µM (inactive)
SMILES: COc1ccc(-c2cccc(NS(=O)(=O)c3cccc([N+](=O)[O-])c3)c2)nn1

IC50 [7]: 221 µM (active)
SMILES: CCOc1ccc(CN2CCN(S(=O)(=O)c3ccc(NC(C)=O)cc3)CC2)cc1

IC50 [5]: > 47.1 µM (inactive)
EC50 [6]: > 53 µM (inactive)
SMILES: CC1(C)CC2CC(C)(CN2/C=C2/CCCCC2=O)C1 (centres undefined)

IC50 [7]: 83.3 µM (active)
SMILES: CN1CCCN(Cc2ccccc2C(F)(F)F)CC1

IC50 [7]: 43.3 µM (active)
SMILES: CCc1ccccc1N=C(S)NCC1CCN(c2ccc(OC)cc2)C1 (centres undefined)
